# Experimental data as given in US8889671B2, “Compounds and methods for treating bacterial infections” (AstraZeneca AB, priority 2013, dated 2014).
# Read-outs that look alike come from different tables or passages of the source.
# How the values were obtained:
# [1] = tested on: Streptococcus pneumoniae; assay: Susceptibility testing (MIC) Assay 1, broth microdilution; format: cell-based
# [2] = tested on: Staphylococcus aureus; assay: as above; format: cell-based
# [3] = tested on: Streptococcus pyogenes; assay: as above; format: cell-based; settings: Streptococcus pyrgenes, in vivo strain, read-out: Spy MIC
# [4] = tested on: Klebsiella pneumoniae; assay: Susceptibility testing (MIC) Assay 2, broth microdilution; format: cell-based; settings: clinical isolate, mucoid, read-out: Kpn MIC
# [5] = tested on: Pseudomonas aeruginosa; assay: as above; format: cell-based; settings: for MIC: PAO1, read-out: Pae MIC
# [6] = tested on: Haemophilus influenzae; assay: as above; format: cell-based; settings: ATCC 51907, in vivo strain, read-out: Hin MIC
# [7] = tested on: Escherichia coli; assay: as above; format: cell-based; settings: K12, read-out: Eco MIC
# [8] = target: Escherichia coli DNA gyrase A/B tetramer (Escherichia coli (strain K12), UniProt P0AES4+P0AES6); assay: DNA gyrase supercoiling activity fluorescence polarisation assay; format: biochemical; settings: Eco Gyr FP Mean IC50, E. coli DNA gyrase supercoiling, 0.3 mM ATP
# How it was run: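 IC50 derived by nonlinear regression from BODIPY-FL fluorescence anisotropy, read 60 min after quenching with labelled triplex-forming probe (pH 3.5). Reaction: 5 nM gyrase tetramer, 130 micrograms/mL relaxed plasmid, 0.3 mM ATP, 4 mM MgCl2, pH 7.5, typically 30 min at ambient temperature, 5-10 compound concentrations.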
# [9] = in vivo strain (footnote b), read-out: Spn(b) MIC
# [10] = in vivo strain (footnote c), read-out: Spn(c) MIC
# [11] = Staphylococcus aureus, Staphylococcus aureus in vivo strain, MSQS, read-out: Sau(d) MIC
# [12] = Staphylococcus aureus, in vivo strain, MRQR, read-out: Sau(e) MIC
# [13] = Staphylococcus aureus, serum, read-out: Sau(f) MIC
# [14] = ATCC51907, Haemophilus influenzae
structure (smiles),measurement,setting,value
"C[C@@H]1CN2c3c(cc4c(N5C(=O)OC[C@@H]5c5cnccn5)noc4c3F)CC3(C(=O)NC(=O)NC3=O)[C@H]2[C@H](C)O1 [Example 62, (2R,4S,4aS)-11-fluoro-2,4-dimethyl-8-((S)-2-oxo-4-(pyrazin-2-yl)oxazolidin-3-yl)-2,4,4a,6-tetrahydro-1H,1′H-spiro[isoxazolo[4,5-g][1,4]oxazino[4,3-a]quinoline-5,5′-pyrimidine]-2′,4′,6′(3′H)-trione]",MIC,[1]; [9],6.2 µM
same,MIC,[1]; [10],3.1 µM
same,MIC,[2]; [11],3.1 µM
same,MIC,[2]; [12],6.2 µM
same,MIC,[2]; [13],6.2 µM
same,MIC,[3]; Streptococcus pyogenes,3.1 µM
same,MIC,[4],> 200 µM
same,MIC,[5],> 200 µM
same,MIC,[6]; [14],3.1 µM
same,MIC,[7],> 200 µM
same,IC50,[8],1.4 µM
"C[C@@H]1CN2c3c(cc4c(N5C(=O)OC[C@@H]5c5ncccn5)noc4c3F)CC3(C(=O)NC(=O)NC3=O)[C@H]2[C@H](C)O1 [Example 64, (2R,4S,4aS)-11-fluoro-2,4-dimethyl-8-((S)-2-oxo-4-(pyrimidin-2-yl)oxazolidin-3-yl)-2,4,4a,6-tetrahydro-1H,1′H-spiro[isoxazolo[4,5-g][1,4]oxazino[4,3-a]quinoline-5,5′-pyrimidine]-2′,4′,6′(3′H)-trione]",MIC,[1]; [9],12 µM
same,MIC,[1]; [10],6.2 µM
same,MIC,[2]; [11],6.2 µM
same,MIC,[2]; [12],25 µM
same,MIC,[2]; [13],25 µM
same,MIC,[3]; Streptococcus pyogenes,6.2 µM
same,MIC,[4],> 200 µM
same,MIC,[5],> 200 µM
same,MIC,[6]; [14],3.1 µM
same,MIC,[7],> 200 µM
same,IC50,[8],> 2.1 µM
"C[C@@H]1CN2c3c(cc4c(N5C(=O)OC[C@@H]5C=NO)noc4c3F)CC3(C(=O)NC(=O)NC3=O)[C@H]2[C@H](C)O1 [Example 74, (2R,4S,4aS)-11-fluoro-8-{(4S)-4-[(hydroxyimino)methyl]-2-oxo-1,3-oxazolidin-3-yl}-2,4-dimethyl-1,2,4,4a-tetrahydro-2′H,6H-spiro[1,4-oxazino[4,3-a][1,2]oxazolo[4,5-g]quinoline-5,5′-pyrimidine]-2′,4′,6′(1′H,3′H)-trione]",MIC,[1]; [9],1.6 µM
same,MIC,[1]; [10],1.6 µM
same,MIC,[2]; [11],6.2 µM
same,MIC,[2]; [12],12 µM
same,MIC,[2]; [13],12 µM
same,MIC,[3]; Streptococcus pyogenes,1.6 µM
same,MIC,[4],> 200 µM
same,MIC,[5],> 200 µM
same,MIC,[6]; [14],0.78 µM
same,MIC,[7],100 µM
same,IC50,[8],0.47 µM
"COCCOC[C@H]1COC(=O)N1c1noc2c(F)c3c(cc12)CC1(C(=O)NC(=O)NC1=O)[C@H]1[C@H](C)O[C@H](C)CN31 [Example 50, (2R,4S,4aS)-11-Fluoro-8-{(4S)-4-[(2-methoxyethoxy)methyl]-2-oxo-1,3-oxazolidin-3-yl}-2,4-dimethyl-1,2,4,4a-tetrahydro-2′H,6H-spiro[1,4-oxazino[4,3-a][1,2]oxazolo[4,5-g]quinoline-5,5′-pyrimidine]-2′,4′,6′(1′H,3′H)-trione]",MIC,[1]; [9],1.6 µM
same,MIC,[1]; [10],1.6 µM
same,MIC,[2]; [11],1.6 µM
same,MIC,[2]; [12],3.1 µM
same,MIC,[2]; [13],1.6 µM
same,MIC,[3]; Streptococcus pyogenes,1.6 µM
same,MIC,[4],> 200 µM
same,MIC,[5],> 200 µM
same,MIC,[6]; [14],3.1 µM
same,MIC,[7],200 µM
same,IC50,[8],0.2 µM
C[C@@H]1CN(c2noc3c(Cl)c4c(cc23)CC2(C(=O)NC(=O)NC2=O)[C@H]2[C@H](C)O[C@H](C)CN42)C(=O)O1 [Example 22],MIC,[1]; [9],0.39 µM
same,MIC,[1]; [10],0.39 µM
same,MIC,[2]; [11],< 0.2 µM
same,MIC,[2]; [12],0.78 µM
same,MIC,[2]; [13],0.78 µM
same,MIC,[3]; Streptococcus pyogenes,0.39 µM
same,MIC,[4],200 µM
same,MIC,[5],> 200 µM
same,MIC,[6]; [14],0.78 µM
same,MIC,[7],12 µM
same,IC50,[8],0.21 µM
C[C@@H]1CN2c3c(cc4c(N5C(=O)OC[C@@H]5C(F)F)noc4c3F)CC3(C(=O)NC(=O)NC3=O)[C@H]2[C@H](C)O1 [Example 51],MIC,[1]; [9],0.78 µM
same,MIC,[1]; [10],0.78 µM
same,MIC,[2]; [11],0.28 µM
same,MIC,[2]; [12],0.55 µM
same,MIC,[2]; [13],0.78 µM
same,MIC,[3]; Streptococcus pyogenes,0.55 µM
same,MIC,[4],100 µM
same,MIC,[5],> 200 µM
same,MIC,[6]; [14],0.39 µM
same,MIC,[7],12 µM
same,IC50,[8],0.43 µM
"C[C@@H]1CN2c3c(cc4c(N5C[C@H](CN=[N+]=[N-])OC5=O)noc4c3F)CC3(C(=O)NC(=O)NC3=O)[C@H]2[C@H](C)O1 [Example 44, (2R,4S,4aS)-8-[(5R)-5-(Azidomethyl)-2-oxo-1,3-oxazolidin-3-yl]-11-fluoro-2,4-dimethyl-1,2,4,4a-tetrahydro-2′H,6H-spiro[1,4-oxazino[4,3-a][1,2]oxazolo[4,5-g]quinoline-5,5′-pyrimidine]-2′,4′,6′(1′H,3′H)-trione]",MIC,[1]; [9],0.78 µM
same,MIC,[1]; [10],1.6 µM
same,MIC,[2]; [11],0.78 µM
same,MIC,[2]; [12],3.1 µM
same,MIC,[2]; [13],3.1 µM
same,MIC,[3]; Streptococcus pyogenes,0.78 µM
same,MIC,[4],> 200 µM
same,MIC,[5],> 200 µM
same,MIC,[6]; [14],0.78 µM
same,MIC,[7],50 µM
same,IC50,[8],0.53 µM
"C[C@@H]1CN2c3c(cc4c(N5C[C@H](C#N)OC5=O)noc4c3F)CC3(C(=O)NC(=O)NC3=O)[C@H]2[C@H](C)O1 [Example 75, (5R)-3-[(2R,4S,4aS)-11-Fluoro-2,4-dimethyl-2′,4′,6′-trioxo-1,1′,2,3′,4,4′,4a,6′-octahydro-2′H,6H-spiro[1,4-oxazino[4,3-a][1,2]oxazolo[4,5-g]quinoline-5,5′-pyrimidin]-8-yl]-2-oxo-1,3-oxazolidine-5-carbonitrile]",MIC,[1]; [9],0.78 µM
same,MIC,[1]; [10],1.62 µM
same,MIC,[2]; [11],0.28 µM
same,MIC,[2]; [12],2.2 µM
same,MIC,[2]; [13],0.39 µM
same,MIC,[3]; Streptococcus pyogenes,0.55 µM
same,MIC,[4],> 200 µM
same,MIC,[5],> 200 µM
same,MIC,[6]; [14],0.78 µM
same,MIC,[7],100 µM
same,IC50,[8],0.71 µM
"C[C@@H]1CN2c3c(cc4c(N5C[C@H](CF)OC5=O)noc4c3F)CC3(C(=O)NC(=O)NC3=O)[C@H]2[C@H](C)O1 [Example 38, (2R,4S,4aS)-11-Fluoro-8-[(5R)-5-(fluoromethyl)-2-oxo-1,3-oxazolidin-3-yl]-2,4-dimethyl-1,2,4,4a-tetrahydro-2′H,6H-spiro[1,4-oxazino[4,3-a][1,2]oxazolo[4,5-g]quinoline-5,5′-pyrimidine]-2′,4′,6′(1′H,3′H)-trione]",MIC,[1]; [9],0.39 µM
same,MIC,[1]; [10],0.39 µM
same,MIC,[2]; [11],< 0.2 µM
same,MIC,[2]; [12],1.65 µM
same,MIC,[2]; [13],0.78 µM
same,MIC,[3]; Streptococcus pyogenes,< 0.2 µM
same,MIC,[4],200 µM
same,MIC,[5],> 200 µM
same,MIC,[6]; [14],0.39 µM
same,MIC,[7],25 µM
same,IC50,[8],0.067 µM
CO[C@H](C)[C@H]1COC(=O)N1c1noc2c(F)c3c(cc12)CC1(C(=O)NC(=O)NC1=O)[C@H]1[C@H](C)O[C@H](C)CN31 [Example 59],MIC,[1]; [9],1.6 µM
same,MIC,[1]; [10],1.6 µM
same,MIC,[2]; [11],0.78 µM
same,MIC,[2]; [12],1.6 µM
same,MIC,[2]; [13],3.1 µM
same,MIC,[3]; Streptococcus pyogenes,1.6 µM
same,MIC,[4],> 200 µM
same,MIC,[5],> 200 µM
same,MIC,[6]; [14],1.6 µM
same,MIC,[7],100 µM
same,IC50,[8],0.86 µM
"C[C@@H]1CN2c3c(cc4c(N5C(=O)OC[C@@H]5c5ncnn5C)noc4c3F)CC3(C(=O)NC(=O)NC3=O)[C@H]2[C@H](C)O1 [Example 68, (2R,4S,4aS)-11-Fluoro-2,4-dimethyl-8-((S)-4-(1-methyl-1H-1,2,4-triazol-5-yl)-2-oxooxazolidin-3-yl)-2,4,4a,6-tetrahydro-1H,1′H-spiro[isoxazolo[4,5-g][1,4]oxazino[4,3-a]quinoline-5,5′-pyrimidine]-2′,4′,6′(3′H)-trione]",MIC,[1]; [9],3.1 µM
same,MIC,[1]; [10],6.2 µM
same,MIC,[2]; [11],12 µM
same,MIC,[2]; [12],25 µM
same,MIC,[2]; [13],12 µM
same,MIC,[3]; Streptococcus pyogenes,3.1 µM
same,MIC,[4],> 200 µM
same,MIC,[5],> 200 µM
same,MIC,[6]; [14],1.6 µM
same,MIC,[7],200 µM
same,IC50,[8],0.22 µM
"COC[C@H]1COC(=O)N1c1noc2c(F)c3c(cc12)CC1(C(=O)NC(=O)NC1=O)[C@H]1[C@H](C)O[C@H](C)CN31 (single isomer, unassigned) [Example 67]",MIC,[1]; [9],0.4 µM
same,MIC,[1]; [10],0.55 µM
same,MIC,"[2]; Staphylococcus aureus in vivo strain, MSQS, read-out: Sau(d) MIC",0.28 µM
same,MIC,[2]; [12],0.55 µM
same,MIC,[2]; [13],0.55 µM
same,MIC,[3],0.28 µM
same,MIC,[4],>200 µM
same,Pae MIC,[5]; PAO1,>200 µM
same,MIC,[6],0.55 µM
same,MIC,[7],25 µM
same,IC50,[8],0.33 µM
"C[C@@H]1CN2c3c(cc4c(N5C(=O)OC[C@H]5c5ncccn5)noc4c3F)CC3(C(=O)NC(=O)NC3=O)[C@H]2[C@H](C)O1 [Example 63, (2R,4S,4aS)-11-Fluoro-2,4-dimethyl-8-((R)-2-oxo-4-(pyrimidin-2-yl)oxazolidin-3-yl)-2,4,4a,6-tetrahydro-1H,1′H-spiro[isoxazolo[4,5-g][1,4]oxazino[4,3-a]quinoline-5,5′-pyrimidine]-2′,4′,6′(3′H)-trione]",MIC,[1]; [9],0.39 µM
same,MIC,[1]; [10],0.39 µM
same,MIC,[2]; [11],0.78 µM
same,MIC,[2]; [12],3.1 µM
same,MIC,[2]; [13],> 200 µM
same,MIC,[3]; Streptococcus pyogenes,0.39 µM
same,MIC,[4],> 200 µM
same,MIC,[5],> 200 µM
same,MIC,[6]; [14],0.39 µM
same,MIC,[7],100 µM
same,IC50,[8],0.38 µM
C[C@@H]1CN2c3c(cc4c(N5C(=O)OC[C@@H]5[C@@H](O)CO)noc4c3F)CC3(C(=O)NC(=O)NC3=O)[C@H]2[C@H](C)O1 [Example 72],MIC,[1]; [9],0.78 µM
same,MIC,[1]; [10],3.1 µM
same,MIC,[2]; [11],25 µM
same,MIC,[2]; [12],50 µM
same,MIC,[2]; [13],25 µM
same,MIC,[3]; Streptococcus pyogenes,0.39 µM
same,MIC,[4],> 200 µM
same,MIC,[5],> 200 µM
same,MIC,[6]; [14],3.1 µM
same,MIC,[7],> 200 µM
same,IC50,[8],0.29 µM
